Tests used:
[1] = system: OVA sensitized, OVA challenged and iTreg transferred CD8α-/- mice; assay: Murine model of iTreg induced IL-17-dependent neutrophilic asthma; assay type: in vivo, mouse
Method: In an allergen-dependent, inducible regulatory T cell (iTreg) model of IL-17-dependent neutrophilic asthma, ovalbumin (OVA) sensitized recipient CD8α^−/− mice are administered iTreg cells intratracheally (i.t.) on Day 26 after the first OVA challenge and subsequently challenged with OVA on Days 26–28[48] (Fig. 5A). This model elicits TH17-dependent IL-17 release that promotes airway neutrophilia and enhanced airway hyperresponsiveness (AHR) to inhaled methacholine. We investigated the effect of JT002 at two doses in OVA sensitized, OVA challenged and iTreg transferred CD8α^−/− mice. JT002 was administered to mice once daily (QD) by oral gavage (p.o.) on Days 23–29 at 2.5 mg/kg (n = 3/group) and at 25 mg/kg (n = 7/group) before evaluation of airway hyperresponsiveness (AHR) and airway inflammation on Day 30 (Fig. 5A). Additional control groups included vehicle treated disease animals (OVA/OVA + iTregs; n = 7/group), OVA sensitized, OVA challenged control animals (OVA/OVA; n = 6/group) and phosphate buffer saline (PBS) sensitized, OVA challenged animals (PBS/OVA; n = 4/group). […] Sensitization and challenge with OVA led to an increase in total serum IgE as well as OVA-specific serum IgE, IgG1 and IgG2b even in the absence of iTreg instillation (Fig. 5E, Supplementary Fig. 4C).
CD4^+CD25^− T cells were enriched from spleens of naïve C57BL/6 mice to > 98% purity with MACS beads (Miltenyi Biotec, Bergisch-Gladbach, Germany). Cells were washed, counted, and resuspended to a final concentration of 4 × 10^6 cells per mL and cultured in X-Vivo 15 (Lonza, Wakersville, MD) supplemented with 5 ng/mL IL-2 and stimulated with bound anti-CD3 and 2 μg/mL soluble anti-CD28 with 5 ng/mL TGF-β for five to seven days to generate iTregs. Female CD8α^−/− C57BL6/j mice were sensitized by intraperitoneal injection of 20 μg OVA (Sigma Aldrich, St. Louis, MO) emulsified in 2.25 mg alum hydroxide (Imject Alum, Pierce, Rockford, IL) in a total volume of 100 μL on Days 0 and 14. Sensitized and challenged mice, denoted OVA/OVA, and non-sensitized but challenged littermates (PBS/OVA) received aerosol challenges for 20 min each day on three consecutive days (Days 26–28) with 1% OVA in PBS using an ultrasonic nebulizer (Omron, Vernon Hills, IL). On Day 26, differentiated iTregs cells generated in vitro were washed and adoptively transferred (5 × 10^5 in 50 μL of PBS) into OVA/OVA mice, denoted as OVA/OVA + iTregs. OVA/OVA + iTregs mice were dosed orally with JT002 at 2.5 or 25 mg/kg once daily on Days 23–29 or with vehicle (0.5% methyl cellulose, 0.25% Tween 80 in 50 mM NaH2PO4/Na2HPO4 at pH 8).
Determination of airway hyperresponsiveness (AHR) AHR was assessed on Day 30 (iTreg model) or 3 h after the O3 exposure (ozone model) as a change in airway resistance (cm H2O/mL/s) after challenge with aerosolized methacholine with using a whole body plethysmograph-based system (National Jewish Medical and Research Center, Denver, CO). Methacholine aerosol was administered by nebulization in increasing concentrations (12.5–100 mg/mL) and RL was continuously computed by fitting flow, volume, and pressure to an equation of motion (Labview, National Instruments, Dallas, TX). Bronchoalveolar Lavage Immediately after assessment of AHR, lungs were lavaged via the tracheal tube with 1 mL of Hanks’ balanced salt solution (Gibco, Grand Island, NY). Total cell numbers were counted. Differential cell counts for neutrophils and macrophages were performed in a blinded fashion by counting at least 200 cells on cytocentrifuged preparations (Model Cytospin 3, Shandon Ltd, Runcorn, UK) stained with Leukostat (Fisher Diagnostics, Fair Lawn, NJ). Cell-free BAL fluid was stored at − 80 °C until measurements of cytokine levels by ELISA (eBioscience, San Diego, CA) were performed. Blood Collection Immediately following AHR measurement, mice were euthanized by exsanguination and blood collected for serum. Samples were stored at − 80 °C for subsequent measurement of immunoglobulin levels by ELISA. […]

Lipophilicity comparison = assay type: physicochemical; details: compared with MCC950
[2] = low dose 2.5 mg/kg p.o. QD Days 23–29

Structure (SMILES): CO[C@@H]1COc2c(S(=O)(=O)NC(=O)Nc3c4c(cc5c3CCC5)CCC4)cnn2C1 [JT002]
- BAL IL-6 concentration ([1]; 25 mg/kg p.o. QD Days 23–29): significantly decreased
- BAL IL-10 concentration ([1]; 25 mg/kg p.o. QD Days 23–29): strong trend for increased
- BAL IL-17 concentration ([1]; 25 mg/kg p.o. QD Days 23–29): significantly decreased
- BAL INFγ concentration ([1]; 25 mg/kg p.o. QD Days 23–29): increased
- airway eosinophilia ([1]; 25 mg/kg p.o. QD Days 23–29): no effect
- airway hyperresponsiveness (AHR) ([1]; 25 mg/kg p.o. QD Days 23–29): significantly decreased
- airway neutrophilia ([1]; 25 mg/kg p.o. QD Days 23–29): significantly decreased
- submucosal inflammatory cell infiltration ([1]; 25 mg/kg p.o. QD Days 23–29): visibly decreased
- serum OVA-specific IgE ([1]; high dose (25 mg/kg)): significant decrease
- serum OVA-specific IgG isoforms ([1]; high dose (25 mg/kg)): no significant effect
- serum total IgE ([1]; high dose (25 mg/kg)): significant decrease
- airway hyperresponsiveness (AHR) [1, 2]: no significant changes
- airway inflammation [1, 2]: no significant changes
- lipophilicity (Lipophilicity comparison): lower lipophilicity than MCC950

Reference: PMC10439952, “JT002, a small molecule inhibitor of the NLRP3 inflammasome for the treatment of autoinflammatory disorders” (Scientific Reports, 2023)
